Laboratory results published in the NIST ThermoML archive (doi:10.1021/acs.jced.6b00043).

Details: 1008.1 K; Crystal; Closed cell (Static) method

vapor or sublimation pressure: 1.552 kPa
Compound: O=C([O-])[O-].[Li+].[Li+] [lithium carbonate]
